The source made the active and inactive calls.
Assays:
[1] = biological target: T1, DNA repair protein RAD52 homolog (Homo sapiens, UniProt P43351); format: functional, biochemical
T1 sequence (P43351 whole entry): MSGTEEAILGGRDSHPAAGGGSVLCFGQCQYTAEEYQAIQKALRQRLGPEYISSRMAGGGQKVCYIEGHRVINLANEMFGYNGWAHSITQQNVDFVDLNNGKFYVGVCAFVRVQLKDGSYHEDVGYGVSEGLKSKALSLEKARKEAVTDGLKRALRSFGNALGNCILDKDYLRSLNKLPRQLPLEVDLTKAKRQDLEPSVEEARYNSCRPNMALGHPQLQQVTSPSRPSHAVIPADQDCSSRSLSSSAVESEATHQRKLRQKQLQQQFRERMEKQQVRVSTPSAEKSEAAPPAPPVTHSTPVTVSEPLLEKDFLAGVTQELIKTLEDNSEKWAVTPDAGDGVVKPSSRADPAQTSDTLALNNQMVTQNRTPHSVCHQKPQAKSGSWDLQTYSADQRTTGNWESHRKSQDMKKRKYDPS

Genome polyprotein = Genome polyprotein (dengue virus type 2, UniProt P29990); assay: flavivirus cap methylation enzyme inhibition – biochemical, confirmation dose response, primary screen (AID 588689); format: functional
Sequence of Genome polyprotein (P29990 2492-3391 limits assumed): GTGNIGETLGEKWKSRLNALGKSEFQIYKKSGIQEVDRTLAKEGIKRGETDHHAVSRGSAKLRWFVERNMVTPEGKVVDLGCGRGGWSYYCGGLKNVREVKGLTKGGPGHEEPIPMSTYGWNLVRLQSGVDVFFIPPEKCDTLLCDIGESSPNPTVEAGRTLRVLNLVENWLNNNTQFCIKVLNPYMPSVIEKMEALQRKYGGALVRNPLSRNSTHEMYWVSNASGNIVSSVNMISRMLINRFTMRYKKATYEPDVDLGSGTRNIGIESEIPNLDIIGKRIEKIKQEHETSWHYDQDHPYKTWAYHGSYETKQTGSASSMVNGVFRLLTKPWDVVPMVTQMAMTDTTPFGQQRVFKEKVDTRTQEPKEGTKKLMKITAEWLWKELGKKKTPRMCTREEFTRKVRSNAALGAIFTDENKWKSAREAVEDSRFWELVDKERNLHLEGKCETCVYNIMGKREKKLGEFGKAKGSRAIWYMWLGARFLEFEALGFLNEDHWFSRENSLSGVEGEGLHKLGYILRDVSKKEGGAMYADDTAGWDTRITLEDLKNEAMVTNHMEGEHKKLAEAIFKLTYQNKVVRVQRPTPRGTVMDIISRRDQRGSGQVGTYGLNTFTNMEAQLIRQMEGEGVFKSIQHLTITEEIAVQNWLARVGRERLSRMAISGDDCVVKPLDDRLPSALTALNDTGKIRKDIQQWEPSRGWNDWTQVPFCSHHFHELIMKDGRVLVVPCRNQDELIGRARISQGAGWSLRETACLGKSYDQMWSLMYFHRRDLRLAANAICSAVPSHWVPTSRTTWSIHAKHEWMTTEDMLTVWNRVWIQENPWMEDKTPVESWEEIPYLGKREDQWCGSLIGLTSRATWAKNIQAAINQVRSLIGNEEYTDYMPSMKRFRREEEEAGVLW

[2] = biological target: T2, Long-chain-fatty-acid--AMP ligase FadD28 (Mycobacterium tuberculosis, UniProt P9WQ59); assay: Fluorescence polarization aasay to screen for inhibitors that compete for the binding of FadD28 to a bisubstrate Measured in Biochemical System Using Plate Reader - 2147-01_Inhibitor_Dose_CherryPick_Activity.; format: functional, Mycobacterium tuberculosis H37Rv
T2 sequence (P9WQ59 whole entry): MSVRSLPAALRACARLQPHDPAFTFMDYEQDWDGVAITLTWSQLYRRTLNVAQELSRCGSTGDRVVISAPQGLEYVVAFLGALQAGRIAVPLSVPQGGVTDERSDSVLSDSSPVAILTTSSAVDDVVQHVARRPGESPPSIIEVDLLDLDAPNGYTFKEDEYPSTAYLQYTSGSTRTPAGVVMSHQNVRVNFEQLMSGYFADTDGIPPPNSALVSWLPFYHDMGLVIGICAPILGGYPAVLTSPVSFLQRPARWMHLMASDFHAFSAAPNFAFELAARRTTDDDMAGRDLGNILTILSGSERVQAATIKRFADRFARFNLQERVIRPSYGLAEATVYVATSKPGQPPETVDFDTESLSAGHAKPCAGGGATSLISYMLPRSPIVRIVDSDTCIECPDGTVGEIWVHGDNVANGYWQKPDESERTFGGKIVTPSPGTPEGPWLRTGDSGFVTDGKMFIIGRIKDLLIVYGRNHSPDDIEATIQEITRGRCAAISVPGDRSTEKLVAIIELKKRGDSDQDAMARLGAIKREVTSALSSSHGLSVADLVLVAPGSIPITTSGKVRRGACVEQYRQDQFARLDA

[3] = biological target: T3, Corticotropin-releasing factor receptor 2/Corticotropin-releasing factor-binding protein (Homo sapiens, UniProt P24387+Q13324); assay: activators of CRF receptor 2 with binding protein – uHTS hits, confirmation (AID 602473); format: functional; settings: read-out: EC50_Mean
T3 sequence (Q13324 whole entry): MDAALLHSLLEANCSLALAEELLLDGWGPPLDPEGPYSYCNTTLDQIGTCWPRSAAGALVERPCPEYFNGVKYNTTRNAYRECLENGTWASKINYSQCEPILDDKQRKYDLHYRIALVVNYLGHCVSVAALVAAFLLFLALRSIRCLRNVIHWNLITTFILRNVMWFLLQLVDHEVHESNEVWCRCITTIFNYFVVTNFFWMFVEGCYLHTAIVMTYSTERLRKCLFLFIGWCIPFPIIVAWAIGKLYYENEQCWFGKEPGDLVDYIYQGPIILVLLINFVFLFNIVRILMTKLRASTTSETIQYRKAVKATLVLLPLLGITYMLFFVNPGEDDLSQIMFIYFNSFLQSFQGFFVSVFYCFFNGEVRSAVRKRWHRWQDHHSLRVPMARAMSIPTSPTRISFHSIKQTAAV
T3 sequence (P24387 whole entry): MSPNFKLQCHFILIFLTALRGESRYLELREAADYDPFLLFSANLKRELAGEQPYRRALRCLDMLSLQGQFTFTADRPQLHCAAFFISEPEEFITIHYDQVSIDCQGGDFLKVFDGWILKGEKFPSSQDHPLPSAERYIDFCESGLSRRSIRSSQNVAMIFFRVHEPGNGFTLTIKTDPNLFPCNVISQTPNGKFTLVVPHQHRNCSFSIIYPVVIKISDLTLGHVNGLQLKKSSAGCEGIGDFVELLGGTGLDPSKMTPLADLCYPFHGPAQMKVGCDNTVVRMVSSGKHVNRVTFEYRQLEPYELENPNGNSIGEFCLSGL

Protein Wnt-3a = Protein Wnt-3a (Mus musculus, UniProt P27467); assay: antagonism of Wnt3a pathway luciferase reporter – Wnt-LIGHT cells, luminescence, selectivity assay for Gli-SUFU antagonist project, dose response (AID 651570); format: functional; settings: read-out: IC50_Mean;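 note: Wnt-LIGHT reporter cells stimulated with conditioned medium from Wnt3a-producing cells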
Sequence of Protein Wnt-3a (P27467 whole entry): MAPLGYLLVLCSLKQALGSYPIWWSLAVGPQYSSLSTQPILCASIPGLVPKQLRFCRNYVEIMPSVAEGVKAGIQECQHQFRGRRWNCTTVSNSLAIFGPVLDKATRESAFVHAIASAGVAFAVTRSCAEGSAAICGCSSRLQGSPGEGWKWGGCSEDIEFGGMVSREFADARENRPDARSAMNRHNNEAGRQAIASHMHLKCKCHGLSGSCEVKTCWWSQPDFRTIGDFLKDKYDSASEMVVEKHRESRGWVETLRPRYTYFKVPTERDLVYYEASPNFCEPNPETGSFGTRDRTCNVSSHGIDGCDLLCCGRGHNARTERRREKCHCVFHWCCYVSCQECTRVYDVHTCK

[4] = fluconazole-exposed Candida albicans growth modulators – fluorescence, retest, confirmation (AID 2467); format: functional, cell-based
[5] = NIH-3T3 fibroblast cytotoxicity, dose response, cytotoxicity control, cell-based, fluorescence, Alamar Blue, secondary assay (AID 2327); format: functional;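 note: NIH-3T3 mouse fibroblasts cultured with fluconazole at 8 µg/mL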
[6] = biological target: T4, Adenosylmethionine-8-amino-7-oxononanoate aminotransferase (Mycobacterium tuberculosis, UniProt P9WQ81); assay: Mycobacterium tuberculosis BioA enzyme inhibitor Measured in Biochemical System Using Plate Reader - 2163-02_Inhibitor_Dose_CherryPick_Activity.; format: functional, Mycobacterium tuberculosis UT205
T4 sequence (P9WQ81 whole entry): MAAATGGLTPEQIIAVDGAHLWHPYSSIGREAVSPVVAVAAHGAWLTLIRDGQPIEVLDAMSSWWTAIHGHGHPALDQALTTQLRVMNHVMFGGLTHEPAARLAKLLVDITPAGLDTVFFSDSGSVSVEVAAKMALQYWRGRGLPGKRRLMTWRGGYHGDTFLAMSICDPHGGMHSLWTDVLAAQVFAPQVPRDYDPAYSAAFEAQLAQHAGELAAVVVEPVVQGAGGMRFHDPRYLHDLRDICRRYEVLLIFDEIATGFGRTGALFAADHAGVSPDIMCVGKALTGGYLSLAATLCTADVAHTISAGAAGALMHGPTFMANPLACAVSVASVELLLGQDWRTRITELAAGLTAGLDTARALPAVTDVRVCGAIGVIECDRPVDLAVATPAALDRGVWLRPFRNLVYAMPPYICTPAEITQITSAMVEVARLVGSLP

[7] = non-specific 3'UTR reporter inhibition in Clone20-Shn3RL – cell-based, Renilla luciferase, cherry-picked, counter-screen for Shn3 inhibitor project, dose response (AID 624133); format: functional
[8] = reduction of Shn3 3'UTR-driven luciferase in osteoblasts – cell-based, Clone20 osteoblasts, firefly luciferase, cherry-picked, dose response (AID 624132); format: functional;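 note: firefly luciferase luminescence from reporter carrying the Shn3 3'UTR in osteoblasts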
[9] = blockers of HIV-1 ZM109 envelope-driven cell-cell fusion – HeLa effector, CEM target cells, luciferase, cherry-pick, dose response (AID 652058); format: functional, cell-based;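 note: luciferase signal from HIV-1 Env mediated cell-cell fusion of effector and target cells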
[10] = blockers of HIV-1 envelope-mediated cell-cell fusion – cherry-pick, dose response (AID 652057); format: functional, cell-based
[11] = off-target signal loss in HeLa-CEM21 co-culture – HeLa F-luc CTL cells, cherry-picked, counter-screen for HIV-1 Env fusion inhibitor project, dose response (AID 652040); format: functional, cell-based;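 note: potency for signal decrease marking cytotoxic or nonspecific inhibition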
[12] = HIV-1 AD8 envelope cell-cell fusion blockers – cherry-pick, dose response (AID 652062); format: functional, cell-based;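 note: luciferase signal from cell-cell fusion driven by HIV-1 clade B AD8 Env; potency is for inhibitors of fusion seen as a drop in luminescence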
[13] = intracellular Trypanosoma cruzi inhibitors in host cells – cell-based, plate reader, cherry-pick samples, set 3, dose response (AID 651818); format: functional;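 note: compounds incubated with infected cells for about four days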

CCN(CC)CCN(Cc1cc2cc3c(cc2nc1O)OCCO3)C(S)=NCCCN(C)C
AC50 [1]: 12.9 µM (active)

O=C(O)c1[nH]c2ccccc2c1C(c1ccccc1)c1c(C(=O)O)[nH]c2ccccc12
IC50 (Genome polyprotein): 16.7 µM (active)
AC50 [2]: 36.5 µM (active)

CC(C)Cc1ccc(C(C)C(=O)Nc2cccnc2)cc1 (stereo not given)
EC50 [3]: > 53 µM (inactive)
IC50 (Protein Wnt-3a): 5.34 µM (active)

C[N+]1(CC(=O)OC2CCCCCCCCCCC2)CCCC1
EC50 [4]: 1.65 µM (active)
IC50 (Protein Wnt-3a): 28 µM (inactive)
EC50 [5]: > 150 µM (inconclusive)

O=C(O)COc1ccccc1-c1nc(-c2ccccc2)c(-c2ccccc2)[nH]1
AC50 [2]: > 100 µM (inactive)

O=C(CSc1nc2c(c(=O)n1-c1ccccc1)SCC2)N1CCN(c2ccccc2)CC1
AC50 [6]: 1.08 µM (active)

CCC(CC)CN1C(N(C)C)=NC[C@@H]1CC(C)C
AC50 [7]: 1.84 µM (active)
AC50 [8]: 0.717 µM (active)
IC50 (Protein Wnt-3a): 5.72 µM (active)

N#CC1=C(N)N(c2ccccc2)C(c2ccco2)C1(C#N)C#N (stereo not given)
AC50 [2]: > 100 µM (inactive)

O=C(CSc1nc2ccccc2c(=O)n1-c1ccccc1)N1CCN(CCO)CC1
AC50 [6]: 12.3 µM (active)

C[C@@]12C(=O)N(CC3CCCO3)CC(=O)N1[C@H]1c3cc(Cl)ccc3OC[C@@H]1[C@@H]2c1ccccc1 (stereo not given in full)
AC50 [9]: 2.64 µM (active)
AC50 [10]: 1.34 µM (active)
AC50 [11]: 2.05 µM (active)
AC50 [12]: 2.52 µM (active)

COc1cccc(NC(=O)CN(C)C(=O)c2ccc(S(=O)(=O)Nc3ccccc3C)cc2)c1
AC50 [2]: > 100 µM (inactive)

C[C@@H]1CN([C@@H](C)CO)C(=O)c2cccc(NC(=O)C3CCCCC3)c2O[C@@H]1CN(C)Cc1ccc(C(=O)Nc2ccccc2N)cc1
AC50 [13]: 1.33 µM (active)

Cc1ccc(S(=O)(=O)Nc2ccc3c(c2)CC(=O)N([C@H](C)CO)C[C@@H](C)[C@@H](CN(C)S(=O)(=O)c2cccs2)O3)cc1
AC50 [13]: 2.5 µM (active)

CO[C@H]1CN(C)C(=O)c2ccc(NC(C)=O)cc2OC[C@@H](C)N(C(=O)c2ccc(F)cc2)C[C@H]1C
AC50 [6]: 11.5 µM (active)

C[C@H]1CN([C@@H](C)CO)C(=O)c2cccc(NC(=O)c3ccncc3)c2O[C@H]1CN(C)Cc1ccc(Cl)c(Cl)c1
AC50 [13]: 0.08 µM (active)

C[C@H](CO)N1C[C@H](C)[C@H](CN(C)C(=O)Nc2cccc3ccccc23)Oc2c(NC(=O)c3ccncc3)cccc2C1=O
AC50 [13]: 3.57 µM (active)

COCCNC(=O)C[C@@H]1CC[C@@H]2[C@H](COc3ccc(NC(=O)Nc4cccc(F)c4)cc3C(=O)N2C)O1
AC50 [6]: 4.17 µM (active)

CC(=O)Nc1cc(-c2ccc(N3CCN(C)CC3)cc2)cn2c(-c3cccc(C(=O)N(C)C)c3)cnc12
AC50 [1]: 8.58 µM (active)

CO[C@H](C(=O)N(C)C[C@@H]1OCc2ccccc2-c2c(n(C)c3ccccc23)C(=O)N([C@H](C)CO)C[C@@H]1C)c1ccccc1
AC50 [9]: 10.2 µM (active)
AC50 [10]: 6.28 µM (active)
AC50 [11]: 15.4 µM (active)
AC50 [12]: 6.84 µM (active)

CCCC[C@H](CN(N=O)[C@@H](Cc1ccccc1)CN(C)N=O)N(CCc1ccccc1)N=O
AC50 [9]: 8.46 µM (active)
AC50 [10]: 3.32 µM (active)
AC50 [11]: 6.02 µM (active)
AC50 [12]: 20.6 µM (active)

Source: ChEMBL document CHEMBL1201862, “PubChem BioAssay data set” (2004)
